Entries after “also recorded” stand apart in the source; their conditions may differ.
Test system: F1 and F2 mice
Assay: Necropsy, histology and hematology of F1 and F2 offspring
Assay type: in vivo
Settings: for HCT / HGB, Hemoglobin / MCH, Mean Corpuscular Hemoglobin / MCHC, Mean Corpuscular Hemoglobin Content / MCV, Mean Corpuscular Volume / RBC, Red Blood Cell Count / WBC, Total White Blood Cell Count: 0.1 Gy + S1P, mean, 95% confidence limit; for Pathology, gross necropsy / Pathology, histology: offspring of 0.1 Gy + S1P mothers
Experimental: When the F1 animals reach 18-20 months of age and the F2 animals reach 12-16 months of age, all mice are euthanized and subjected to gross necropsy and biochemical analysis. Organs from a subgroup of 65 randomly selected animals in the two different generations are also subjected to complete histologic analysis.
Eighteen to 20 month-old F1 mice, and 12-16 month-old F2 mice, are euthanized and gross pathology is assessed immediately upon death. In a total of 484 mice, the heart, lung, stomach, small and large intestine, liver, salivary gland, kidney, urinary bladder, brain, cervical spinal cord, muscle, bone, bone marrow, skin, pituitary, thyroid, pancreas, adrenal, lymph node, spleen, thymus, testis (males), seminal vesicle (males), prostate (males), ovary (females), and uterus (females) are evaluated. Any organ showing gross abnormalities is fixed with 10% paraformaldehyde, encased in paraffin, and stained with hematoxylin and eosin for in-depth histologic analysis. Furthermore, histology on all organs is performed on 65 randomly selected mice of different generations (F1 or F2), different genders, and different experimental treatments. From an additional 28 randomly-selected mice, blood is collected by cardiac puncture for hematologic analysis, and in 9 animals full differential counts are performed. Differential white cell counts are also performed in all mice displaying a pathological phenotype.

[1] = N=189, numbers in parenthesis = animals

CCCCCCCCCCCCC/C=C/[C@@H](O)[C@@H](N)COP(=O)(O)O [S1P, sphingosine-1-phosphate]
HCT (first group (N=69)): 45.4 | HGB, Hemoglobin (first group (N=69)): 14.2 g/dL | MCH, Mean Corpuscular Hemoglobin (first group (N=69)): 15.3 pg | MCHC, Mean Corpuscular Hemoglobin Content (first group (N=69)): 31.4 g/dL | MCV, Mean Corpuscular Volume (first group (N=69)): 49.1 fL | RBC, Red Blood Cell Count (first group (N=69)): 9.3e+12 L⁻¹ | WBC, Total White Blood Cell Count (first group (N=69)): 1.09e+10 L⁻¹ | HCT (second group (N=189)): 46.3 | HGB, Hemoglobin (second group (N=189)): 14.9 g/dL | MCH, Mean Corpuscular Hemoglobin (second group (N=189)): 15.9 pg | MCHC, Mean Corpuscular Hemoglobin Content (second group (N=189)): 30.8 g/dL | MCV, Mean Corpuscular Volume (second group (N=189)): 49.2 fL | RBC, Red Blood Cell Count (second group (N=189)): 9.4e+12 L⁻¹ | WBC, Total White Blood Cell Count (second group (N=189)): 1.1e+10 L⁻¹ | gross histologic or biochemical abnormalities in offspring (F1 at 18-20 months, F2 at 12-16 months): No gross histologic or biochemical abnormalities | Pathology, gross necropsy (N=69): Enlarged uterus; also recorded: Perineal tumor | Pathology, histology (N=69, numbers in parenthesis = animals): LI in liver (2); also recorded: LI in lung (3); also recorded: Mucometra; also recorded: Lipoma | Pathology, gross necropsy [1]: Dermatitis (3); also recorded: Cyst in right ovary; also recorded: Alopecia; also recorded: Traumatic injury | Pathology, histology [1]: LI in lung (7); also recorded: Liver (3); also recorded: Kidney; also recorded: Ovarian cyst
